Where two headings read alike, the source gives them in different places.
Assays:
[1] = system: HCV genotype 1a (H77 strain) replicon in HUH-7 cells; assay: HCV replicon luciferase reporter assay, genotype 1a; type: cell-based; settings: Hepatitis C virus, Huh-7, 72 h, 3 days incubation, read-out: LE_1a (EC50, range)
Outline: (§1)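 Replicon inhibition for both genotypes was measured as Renilla luciferase signal (EnduRen, 7.5 μM final, 2 h) after 3-day, 37° C exposure of replicon-bearing HUH-7 cells in 4% FCS DMEM, 0.5% DMSO. The 1b construct carries S1179I; the 1a H77 construct carries P1496L and S2204I. Twenty-point, 3-fold dilutions were fitted four-parametrically for EC50, and CC50 was taken from multiplexed Cell Titer-Blue.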

[2] = system: HCV genotype 1b (Con1) replicon in HUH-7 cells; assay: HCV replicon luciferase reporter assay, genotype 1b; type: cell-based; settings: Hepatitis C virus, Huh-7, 72 h, 3 days incubation, read-out: LE_1b (EC50, range)
Outline: as §1

[3] = HCV genotype 1a replicon luciferase
[4] = HCV genotype 1b replicon luciferase
[5] = HCV genotype 1a replicon luciferase assay, range class
[6] = HCV genotype 1b replicon luciferase assay, range class
[7] = GETYPE1A, HCV genotype 1a replicon luciferase
[8] = GETYPE1B, HCV genotype 1b replicon luciferase

| Compound | EC50 [1, 3] | EC50 [2, 4] | EC50 [1, 5] | EC50 [2, 6] | further results |
| --- | --- | --- | --- | --- | --- |
| C[C@H]1CC/C=C\[C@@H]2C[C@@]2(C(=O)NS(=O)(=O)C2CC2)NC(=O)[C@@H]2C[C@@H](Oc3nccc4c5c(ccc34)N(C)CCO5)CN2C(=O)[C@@H](NC(=O)O[C@@H]2C[C@@H]3C[C@@H]3C2)[C@H](C)C1 [Compound 5291, (1R,3r,5 S)-bicyclo[3.1.0]hexan-3-yl((2R,6S,7R,9S,13aS,14aR,16aS,Z)-14a-((cyclopropylsulfonyl)carbamoyl)-7,9-dimethyl-2-((4-methyl-3,4-dihydro-2H-[1,4]oxazino[2,3-f]isoquinolin-7-yl)oxy)-5,16-dioxo-1,2,3,5,6,7,8,9,10,11,13a,14,14a,15,16,16a-hexadecahydrocyclopropa[e]pyrrolo[1,2-a][1,4]diazacyclopentadecin-6-yl)carbamate] | < 5.46 nM | < 5.46 nM |  |  |  |
| COc1cnc(O[C@@H]2C[C@H]3C(=O)N[C@]4(C(=O)NS(=O)(=O)C5(CF)CC5)C[C@H]4CCCC[C@H](C)C[C@@H](C)[C@H](NC(=O)OC(C)(C)C(F)(F)F)C(=O)N3C2)c2ccccc12 [Compound 5116, 1,1,1-trifluoro-2-methylpropan-2-yl((2R,6S,7R,9S,13aR,14aR,16aS)-14a-(((1-(fluoromethyl)cyclopropyl)sulfonyl)carbamoyl)-2-((4-methoxyisoquinolin-1-yl)oxy)-7,9-dimethyl-5,16-dioxooctadecahydrocyclopropa[e]pyrrolo[1,2-a][1,4]diazacyclopentadecin-6-yl)carbamate] | > 87.4 nM | 4.82 to 103 nM |  |  |  |
| COc1ccc2c(O[C@@H]3C[C@H]4C(=O)N[C@]5(C(=O)NS(=O)(=O)C6(C)CC6)C[C@H]5/C=C\CC[C@@H](C)C[C@@H](C)[C@H](NC(=O)OCC5(C)CC5)C(=O)N4C3)nc(-c3ccc(OC(C)C)c(F)c3)cc2c1 [Compound 3068, (1-methylcyclopropyl)methyl ((2R,6S,7R,9R,13aS,14aR,16aS,Z)-2-((3-(3-fluoro-4-isopropoxyphenyl)-6-methoxyisoquinolin-1-yl)oxy)-7,9-dimethyl-14a-(((1-methylcyclopropyl)sulfonyl)carbamoyl)-5,16-dioxo-1,2,3,5,6,7,8,9,10,11,13a,14,14a,15,16,16a-hexadecahydrocyclopropa[e]pyrrolo[1,2-a][1,4]diazacyclopentadecin-6-yl)carbamate] |  |  | < 5.46 nM | < 5.46 nM |  |
| CC(C)n1nc(O[C@@H]2C[C@H]3C(=O)N[C@]4(C(=O)NS(=O)(=O)C5CC5)C[C@H]4/C=C\CC[C@@H](C)C[C@@H](C)[C@H](NC(=O)OC(C)(C)C(C)(F)F)C(=O)N3C2)c2ccccc2c1=O [Compound 1018, 3,3-difluoro-2-methylbutan-2-yl((2R,6S,7R,9R,13aS,14aR,16aS,Z)-14a-((cyclopropylsulfonyl)carbamoyl)-2-((3-isopropyl-4-oxo-3,4-dihydrophthalazin-1-yl)oxy)-7,9-dimethyl-5,16-dioxo-1,2,3,5,6,7,8,9,10,11,13a,14,14a,15,16,16a-hexadecahydrocyclopropa[e]pyrrolo[1,2-a][1,4]diazacyclopentadecin-6-yl)carbamate] |  |  | 4.82 to 103 nM | 4.82 to 103 nM |  |
| COc1cnc2ccc(O[C@@H]3C[C@H]4C(=O)N[C@]5(C(=O)NS(=O)(=O)C6(C)CC6)C[C@H]5/C=C\CC[C@@H](C)C[C@@H](C)[C@H](NC(=O)OC(C)(C)C)C(=O)N4C3)cc2n1 [Compound 4310, tert-butyl ((2R,6S,7R,9R,13aS,14aR,16aS,Z)-2-((3-methoxyquinoxalin-6-yl)oxy)-7,9-dimethyl-14a-(((1-methylcyclopropyl)sulfonyl)carbamoyl)-5,16-dioxo-1,2,3,5,6,7,8,9,10,11,13a,14,14a,15,16,16a-hexadecahydrocyclopropa[e]pyrrolo[1,2-a][1,4]diazacyclopentadecin-6-yl)carbamate] | 0.51 to 1 nM | 1.01 to 5 nM |  |  |  |
| COc1cnc(O[C@@H]2C[C@H]3C(=O)N[C@]4(C(=O)NS(=O)(=O)C5(CF)CC5)C[C@H]4/C=C\CC[C@@H](C)C[C@@H](C)[C@H](NC(=O)OC(C)(C)C)C(=O)N3C2)c2ccc(N(C)C)cc12 [Compound 3142, tert-butyl ((2R,6S,7R,9R,13aS,14aR,16aS,Z)-2-((6-(dimethylamino)-4-methoxyisoquinolin-1-yl)oxy)-14a-(((1-(fluoromethyl)cyclopropyl)sulfonyl)carbamoyl)-7,9-dimethyl-5,16-dioxo-1,2,3,5,6,7,8,9,10,11,13a,14,14a,15,16,16a-hexadecahydrocyclopropa[e]pyrrolo[1,2-a][1,4]diazacyclopentadecin-6-yl)carbamate] |  |  | < 5.46 nM | < 5.46 nM |  |
| COc1ccc2c(O[C@@H]3C[C@H]4C(=O)N[C@]5(C(=O)NS(=O)(=O)C6(C)CC6)C[C@H]5/C=C\CC[C@H](C)C[C@@H](C)[C@H](NC(=O)OC(C)(C)C)C(=O)N4C3)nc(-c3ccc(OC(C)C)c(F)c3)cc2c1 [Compound 3061, tert-butyl ((2R,6S,7R,9S,13aS,14aR,16aS,Z)-2-((3-(3-fluoro-4-isopropoxyphenyl)-6-methoxyisoquinolin-1-yl)oxy)-7,9-dimethyl-14a-(((1-methylcyclopropyl)sulfonyl)carbamoyl)-5,16-dioxo-1,2,3,5,6,7,8,9,10,11,13a,14,14a,15,16,16a-hexadecahydrocyclopropa[e]pyrrolo[1,2-a][1,4]diazacyclopentadecin-6-yl)carbamate] |  |  | 4.82 to 103 nM | < 5.46 nM |  |
| COc1cc2ccnc(O[C@@H]3C[C@H]4C(=O)N[C@]5(C(=O)NS(=O)(=O)C6(CF)CC6)C[C@H]5/C=C\CC[C@@H](C)C[C@@H](C)[C@H](NC(=O)OC(C)(C)C)C(=O)N4C3)c2cc1OC [Compound 5385, tert-butyl ((2R,6S,7R,9R,13aS,14aR,16aS,Z)-2-((6,7-dimethoxyisoquinolin-1-yl)oxy)-14a-(((1-(fluoromethyl)cyclopropyl)sulfonyl)carbamoyl)-7,9-dimethyl-5,16-dioxo-1,2,3,5,6,7,8,9,10,11,13a,14,14a,15,16,16a-hexadecahydrocyclopropa[e]pyrrolo[1,2-a][1,4]diazacyclopentadecin-6-yl)carbamate] | 5.01 to 35 nM | 1.01 to 5 nM |  |  |  |
| COc1ccc2c(O[C@@H]3C[C@H]4C(=O)N[C@]5(C(=O)NS(=O)(=O)C6CC6)C[C@H]5/C=C\CC[C@@H](C)C[C@@H](C)[C@H](NC(=O)OC5C[C@@H]6C[C@@H]6C5)C(=O)N4C3)nc(-c3ccc(N4CCOCC4)cc3)cc2c1 (stereo partly drawn) [Compound 5195, (1R,3r,5S)-bicyclo[3.1.0]hexan-3-yl((2R,6S,7R,9R,13aS,14aR,16aS,Z)-14a-((cyclopropylsulfonyl)carbamoyl)-2-((6-methoxy-3-(4-morpholinophenyl)isoquinolin-1-yl)oxy)-7,9-dimethyl-5,16-dioxo-1,2,3,5,6,7,8,9,10,11,13a,14,14a,15,16,16a-hexadecahydrocyclopropa[e]pyrrolo[1,2-a][1,4]diazacyclopentadecin-6-yl)carbamate] | < 5.46 nM | < 5.46 nM |  |  |  |
| CCOc1ccc2c(O[C@@H]3C[C@H]4C(=O)N[C@]5(C(=O)NS(=O)(=O)C6(C)CC6)C[C@H]5/C=C\CC[C@H](C)C[C@@H](C)[C@H](NC(=O)OC(C)(C)C)C(=O)N4C3)nccc2c1 [Compound 5133, tert-butyl ((2R,6S,7R,9S,13aS,14aR,16aS,Z)-2-((6-ethoxyisoquinolin-1-yl)oxy)-7,9-dimethyl-14a-(((1-methylcyclopropyl)sulfonyl)carbamoyl)-5,16-dioxo-1,2,3,5,6,7,8,9,10,11,13a,14,14a,15,16,16a-hexadecahydrocyclopropa[e]pyrrolo[1,2-a][1,4]diazacyclopentadecin-6-yl)carbamate] | 4.82 to 103 nM | < 5.46 nM |  |  |  |
| CCCOc1cc2c(Cl)cccc2c(O[C@@H]2C[C@H]3C(=O)N[C@]4(C(=O)NS(=O)(=O)C5CC5)C[C@H]4/C=C\CC[C@@H](C)C[C@@H](C)[C@H](NC(=O)OC4C[C@@H]5C[C@H]5C4)C(=O)N3C2)n1 [Compound 1086, (1S,5S)-bicyclo[3.1.0]hexan-3-yl((2R,6S,7R,9R,13aS,14aR,16aS,Z)-2-((5-chloro-3-propoxyisoquinolin-1-yl)oxy)-14a-((cyclopropylsulfonyl)carbamoyl)-7,9-dimethyl-5,16-dioxo-1,2,3,5,6,7,8,9,10,11,13a,14,14a,15,16,16a-hexadecahydrocyclopropa[e]pyrrolo[1,2-a][1,4]diazacyclopentadecin-6-yl)carbamate] |  |  | < 5.46 nM | < 5.46 nM |  |
| COc1ccc2nc(C(F)(F)F)c(O[C@@H]3C[C@H]4C(=O)N[C@]5(C(=O)NS(=O)(=O)C6(C)CC6)C[C@H]5/C=C\CC[C@@H](C)C[C@@H](C)[C@H](NC(=O)OC(C)(C)C(F)(F)F)C(=O)N4C3)nc2c1 [Compound 4195] |  |  |  |  | EC50 [1, 7]: < 5.46 nM; EC50 [2, 8]: < 5.46 nM |
| CC[C@@H]1C[C@H](C)CC/C=C\[C@@H]2C[C@@]2(C(=O)NS(=O)(=O)C2(C)CC2)NC(=O)[C@@H]2C[C@@H](Oc3ncc(OC)c4cc(OC)c(F)cc34)CN2C(=O)[C@H]1NC(=O)OC(C)(C)C(F)(F)F [Compound 4236] |  |  |  |  | EC50 [1, 7]: < 5.46 nM; EC50 [2, 8]: < 5.46 nM |

Source: patent US9499550B2 (BRISTOL-MYERS SQUIBB COMPANY, priority 2012, dated 2016)
